Results published in ChEMBL document CHEMBL3352725, “An uncharged oxetanyl sulfoxide as a covalent modifier for improving aqueous solubility” (ACS Med Chem Lett, 2014).
Values after ≈ are worked out from the molar mass of the structure shown.

Columns and labels:
[1] = Aqueous solubility of the compound in H2O after 24 hrs incubation at 30 degC by LCMS analysis; assay type: physicochemical; conditions: for solubility at 24 h: water
[2] = Metabolic stability in mouse liver microsomes assessed as compound remaining after 1 hr; assay type: ADME; conditions: read-out: Stability

| SMILES | solubility at 24 h [1] [µg/mL] | remaining at 1 h [2] [%] | solubility ([1]; buffer, 24 h) [µg/mL] |
| --- | --- | --- | --- |
| COc1ccc2cc([C@H](C)C(=O)OCCSCC3(C)COC3)ccc2c1 | 13 (≈ 34.7 µM) | – | – |
| COc1ccc2cc([C@H](C)C(=O)OCCS(=O)(=O)CC3(C)COC3)ccc2c1 | 63 (≈ 155 µM) | – | – |
| COc1ccc2cc([C@H](C)C(=O)OCC[S+](C)[O-])ccc2c1 (some centres undefined) | 270 (≈ 843 µM) | – | – |
| Cc1ccc(Cl)c(Nc2ccccc2C(=O)OCC[S+]([O-])CC2(C)COC2)c1Cl (centres undefined) | 250 (≈ 548 µM) | – | – |
| CC1(C[S+]([O-])CCOC(=O)N2CCN(c3cc4c(cc3F)c(=O)c(C(=O)O)cn4C3CC3)CC2)COC1 (centres undefined) | 190 (≈ 355 µM) | – | – |
| Cc1cc(NS(=O)(=O)c2ccc(NC(=O)OCC[S+]([O-])CC3(C)COC3)cc2)no1 (centres undefined) | 1000 (≈ 2190 µM) | – | – |
| CCOC(=O)Nc1ccc2sc3c(c2c1)SCCNC3=O | 67 (≈ 208 µM) | – | – |
| CC1(C[S+]([O-])CCOC(=O)Nc2ccc3sc4c(c3c2)SCCNC4=O)COC1 (centres undefined) | 440 (≈ 968 µM) | – | – |
| CC(C)C[C@@H](/C=C/CC(=O)NC1CC(C)(C)N([O])C(C)(C)C1)NC(=O)OC(C)(C)C | 250 (≈ 589 µM) | – | – |
| COc1ccc2cc([C@H](C)C(=O)OCC[S+]([O-])CC3(C)COC3)ccc2c1 (mixture of isomers) | 820 | – | – |
| C[C@H](CCC(=O)OCC[S+]([O-])CC1(C)COC1)[C@H]1CC[C@H]2[C@@H]3CC[C@@H]4C[C@H](O)CC[C@]4(C)[C@H]3CC[C@]12C (mixture of isomers) | 260 | – | – |
| CC(C)C[C@@H](/C=C/CC(=O)NC1CC(C)(C)N([O])C(C)(C)C1)NC(=O)OCC[S+]([O-])CC1(C)COC1 (mixture of isomers) | 24000 | 16 | – |
| Cc1ccc(Cl)c(Nc2ccccc2C(=O)O)c1Cl [MECLOFENAMIC ACID] | – | – | 550 (≈ 1860 µM) |
